Format in all cases: in vivo, Glycine max
The subject of test [1] is ROUNDUP READY soybeans (GLXMA). As to the kind of experiment: Field evaluation with various herbicides, 30 days after treatment. The following applies: for % Crop Control: 30 Days After Treatment. An excerpt: The data was the result of conducting factorial replicated field trials (3 trials) by applying the compositions at a spray pressure of 300 kPa and a spray volume of 200 L/ha. The treated plots and control plots were visually rated blind at the specified dates after application. Ratings were based on a scale of 0-100%, as discussed above, wherein 0% indicates complete growth of the undesired vegetation and 100% indicates complete prevention/eradication of the undesired vegetation.

Test [2] relates to Maverick GLXMA (conventional soybean). As to the kind of experiment: Greenhouse evaluation of broadleaf volunteer crop control, Maverick soybean. The settings on record: for pest or weed control at 1.1 g/ha / pest or weed control at 2.2 g/ha / pest or weed control at 4.4 g/ha / pest or weed control at 8.75 g/ha / pest or weed control at 17.5 g/ha: Glycine max, 504 h, read-out: Average Percent Crop Control after Treatment, Maverick GLXMA. How it is done: (§1) Test plants were grown in METRO-MIX® 360 (SunGro Horticulture, Bellevue, Wash.) in 132.7 square centimeters (cm^2) plastic pots for 7-21 days in a greenhouse with an approximate 15 hour (h) photoperiod which was maintained at about 23-29° C. during the day and 22-28° C. during the night. Plants were grown to the 2 to 3 leaf stage prior to applications. Both conventional soybean crops varieties, Maverick and Resnick, and herbicide resistant (HT) varieties AAD12, AAD1, and ROUNDUP® ready soybean crops were treated.
(§2) A weighed amount, determined by the highest rate to be tested, of each test compound was placed in a 25 milliliter (mL) glass vial and was dissolved in 4 mL of a 97:3 v/v (volume/volume) mixture of acetone and dimethyl sulfoxide (DMSO), which will be referred to as General Purpose Solvent (GPS), to obtain concentrated stock solutions. […] The concentrated stock solutions obtained were diluted with 20 mL of an aqueous mixture containing water, GPS, isopropyl alcohol, ATPLUS® 411F crop oil concentrate, and TRITON® X-155 surfactant in a 46:42:12:1.0:0.02 v/v ratio to obtain spray solutions containing the highest application rates. Additional application rates were obtained by serial dilution of 12 mL of the high rate solution into a solution containing 2 mL of 97:3 v/v (volume/volume) mixture of acetone and dimethyl sulfoxide (DMSO) and 10 mL of an aqueous mixture containing water, GPS, isopropyl alcohol, ATPLUS® 411F crop oil concentrate, and TRITON® X-155 surfactant in a 46:42:12:1.0:0.02 v/v ratio to obtain 1/2X, 1/4X, 1/8X and 1/16X rates of the high rate (X). Compound requirements are based upon a 12 mL application volume at a rate of 187 L/ha. Formulated compounds were applied to the plant material with an overhead Mandel track sprayer equipped with 8002E nozzles calibrated to deliver 187 L/ha over an application area of 0.503 square meters (m^2) at a spray height of 18 inches (43 cm) above the average plant canopy height. Control plants were sprayed in the same manner with the solvent blank. The treated plants and control plants were placed in a greenhouse as described above and watered by sub-irrigation to prevent wash-off of the test compounds. After 21 days, the condition of the test plants as compared with that of the control plants was determined visually and scored on a scale of 0 to 100 percent where 0 corresponds to no injury and 100 corresponds to complete kill, and results are listed in Table 1 along with active ingredients and their respective formulations. Each score in Table 1 represents an average obtained from results of three representative experiments.
(§3) Additional formulations with different 6-arylpicolinates were tested in the greenhouse on Maverick and RoundUp-ready soybean crops using the procedure described above. Each score in Table 2 represents an average obtained from results of three representative experiments.

Test [3] concerns RoundUp Ready GLXMA (HT variety soybean). The experiment in a line: Greenhouse evaluation of broadleaf volunteer crop control, RoundUp ready soybean. The settings on record: for pest or weed control at 1.1 g/ha / pest or weed control at 2.2 g/ha / pest or weed control at 4.4 g/ha / pest or weed control at 8.75 g/ha / pest or weed control at 17.5 g/ha: Glycine max, 504 h, read-out: Average Percent Crop Control after Treatment, RoundUp Ready GLXMA. On the procedure: as §1, §2, §3

Setting [4] is: 1.1 g ae/ha, greenhouse, 2 to 3 leaf stage, after 21 days, 0 no injury, 100 complete kill.
[5] abbreviates: 2.2 g ae/ha, greenhouse, 2 to 3 leaf stage, after 21 days, 0 no injury, 100 complete kill.
Setting [6] is: 4.4 g ae/ha, greenhouse, 2 to 3 leaf stage, after 21 days, 0 no injury, 100 complete kill.
[7] abbreviates: 8.75 g ae/ha, greenhouse, 2 to 3 leaf stage, after 21 days, 0 no injury, 100 complete kill.
Setting [8] is: 17.5 g ae/ha, greenhouse, 2 to 3 leaf stage, after 21 days, 0 no injury, 100 complete kill.

Each structure is given as a SMILES string. Like-named read-outs stand apart in the source and are kept apart here.

On to `CC(O)CN(CC(C)O)CC(C)O.Nc1cc(Cl)nc(C(=O)O)c1Cl` (stereo not shown) [Aminopyralid TIPA], for which the “% Crop Control” value in test [1] (1.25 g ai/Ha) is recorded as 60%.
As for `COc1cnc(OC)n2nc(NS(=O)(=O)c3c(OCC(F)F)cccc3C(F)(F)F)nc12` [Penoxsulam], the “% Crop Control” value in test [1] (18 g ai/Ha) was determined as 87.3%.
Take `Nc1c(F)c(-c2ccc3c(c2)OCO3)nc(C(=O)O)c1Cl`: the pest or weed control at 1.1 g/ha stood at 27% in test [2] (setting [4]) and 32% in test [3] (setting [4]). For the same compound, the pest or weed control at 2.2 g/ha was determined as 42% in test [2] (setting [5]) and 45% in test [3] (setting [5]). Also, the figures for the pest or weed control at 4.4 g/ha in test [2] (setting [6]) and in test [3] (setting [6]) were 58% and 73%, respectively. The pest or weed control at 8.75 g/ha in test [2] (setting [7]) worked out at 95%; in test [3] (setting [7]), 92%. In addition, the pest or weed control at 17.5 g/ha in test [2] (setting [8]) came out at 100%; in test [3] (setting [8]), 98%.
For `COc1ncc(F)c2nc(S(=O)(=O)Nc3c(F)cccc3F)nn12` [florasulam], the “% Crop Control” value in test [1] (5 g ai/Ha + 1% J'Oil) came to 63.3%.
For the compound `COC(=O)c1nc(-c2ccc(Cl)cc2OC)cc(N)c1Cl`, the pest or weed control at 1.1 g/ha in test [2] (setting [4]) came to 98%; in test [3] (setting [4]), 95%. The results for the pest or weed control at 2.2 g/ha in test [2] (setting [5]) and in test [3] (setting [5]) were 100% and 99%, respectively. Further, the pest or weed control at 4.4 g/ha in test [2] (setting [6]) and in test [3] (setting [6]) was 100% each time. Further, the pest or weed control at 8.75 g/ha in test [2] (setting [7]) and in test [3] (setting [7]) was 100% each time. The pest or weed control at 17.5 g/ha in test [2] (setting [8]) and in test [3] (setting [8]) was 100% throughout.
Turning to `COc1c(Cl)ccc(-c2nc(C(=O)OCc3ccccc3)c(Cl)c(N)c2F)c1F`, in test [2], the pest or weed control at 1.1 g/ha came out at 100%, the pest or weed control at 2.2 g/ha came out at 100%, the pest or weed control at 4.4 g/ha came to 100% and the pest or weed control at 8.75 g/ha is 100%. Besides, in test [2], the pest or weed control at 17.5 g/ha was 100%. In test [3], the pest or weed control at 1.1 g/ha came out at 100%, the pest or weed control at 2.2 g/ha was determined as 100%, the pest or weed control at 4.4 g/ha came to 100% and the pest or weed control at 8.75 g/ha came out at 100%. In test [3], the pest or weed control at 17.5 g/ha is 100%.
As to `COc1c(Cl)ccc(-c2nc(C(=O)O)c(Cl)c(N)c2F)c1F` [drawing 13], the “Average Percent Crop Control after Treatment, Maverick GLXMA” value in test [2] (setting [4]), in test [2] (setting [5]), in test [2] (setting [6]), in test [2] (setting [7]) and in test [2] (setting [8]) was 100% each time. Further, the “Average Percent Crop Control after Treatment, RoundUp Ready GLXMA” value in test [3] (setting [5]), in test [3] (setting [6]), in test [3] (setting [7]) and in test [3] (setting [8]) was 100% each time. The pest or weed control at 1.1 g/ha in test [3] (setting [4]) amounted to 100%.
In the case of `CCOc1cc(Oc2ccc(C(F)(F)F)cc2Cl)ccc1[N+](=O)[O-]` [Oxyfluorfen], in test [1] (72 g ai/Ha), the “% Crop Control” value stood at 16.7%.
Take `Nc1cc(-c2ccc(Cl)cc2F)nc(C(=O)O)c1Cl`: the pest or weed control at 1.1 g/ha in test [2] (setting [4]) and in test [3] (setting [4]) was 100% in each case. The pest or weed control at 2.2 g/ha in test [2] (setting [5]) and in test [3] (setting [5]) was 100% throughout. In addition, the pest or weed control at 4.4 g/ha in test [2] (setting [6]) and in test [3] (setting [6]) was 100% each time. Also, the pest or weed control at 8.75 g/ha in test [2] (setting [7]) and in test [3] (setting [7]) was 100% throughout. For the same compound, the pest or weed control at 17.5 g/ha in test [2] (setting [8]) and in test [3] (setting [8]) was 100% in each case.
As to `CCNc1nc(Cl)nc(NC(C)C)n1` [Atrazine], the “% Crop Control” value in test [1] (1500 g ai/Ha + 1% J'Oil) was 86.7%; in test [1] (1500 g ai/Ha), 75%.
As for `Cc1ccc(-c2cc(N)c(Cl)c(C(=O)O)n2)cc1`, the pest or weed control at 1.1 g/ha in test [2] (setting [4]) was 100%; in test [3] (setting [4]) it was 90%. The pest or weed control at 2.2 g/ha in test [2] (setting [5]) and in test [3] (setting [5]) was 100% each time. Further, the pest or weed control at 4.4 g/ha in test [2] (setting [6]) and in test [3] (setting [6]) was 100% in each case. Further, the pest or weed control at 8.75 g/ha in test [2] (setting [7]) and in test [3] (setting [7]) was 100% each time. The pest or weed control at 17.5 g/ha in test [2] (setting [8]) and in test [3] (setting [8]) was 100% each time.
On to `Cc1c(Cl)ccc(-c2cc(N)c(Cl)c(C(=O)O)n2)c1F`, for which the figures for the pest or weed control at 1.1 g/ha in test [2] (setting [4]) and in test [3] (setting [4]) were 53% and 57%, respectively. The pest or weed control at 2.2 g/ha in test [2] (setting [5]) amounted to 82%; in test [3] (setting [5]) it was 80%. Further, the pest or weed control at 4.4 g/ha came to 99% in test [2] (setting [6]) and 98% in test [3] (setting [6]). Further, the pest or weed control at 8.75 g/ha in test [2] (setting [7]) and in test [3] (setting [7]) was 100% in each case. The pest or weed control at 17.5 g/ha in test [2] (setting [8]) and in test [3] (setting [8]) was 100% throughout.
On to `COc1c(Cl)ccc(-c2cc(N)c(Cl)c(C(=O)O)n2)c1F` [drawing 15], for which the pest or weed control at 1.1 g/ha in test [2] (setting [4]) and in test [3] (setting [4]) was 100% throughout. The pest or weed control at 2.2 g/ha in test [2] (setting [5]) and in test [3] (setting [5]) was 100% each time. The pest or weed control at 4.4 g/ha in test [2] (setting [6]) and in test [3] (setting [6]) was 100% each time. Also, the pest or weed control at 8.75 g/ha in test [2] (setting [7]) and in test [3] (setting [7]) was 100% each time. In addition, the pest or weed control at 17.5 g/ha in test [2] (setting [8]) and in test [3] (setting [8]) was 100% in each case.
In the case of `COc1c(Cl)ccc(-c2nc(C(=O)O)c(Cl)c(N)c2F)c1F` [Formula (III)], in test [1] (18 g ai/Ha), the “% Crop Control” value amounted to 100%. For the same compound, in test [1] (RoundUp Ready soybeans), the “herbicidal activity in genetically engineered crops as compared to other commercially known herbicides” value is recorded as “comparable or superior”.

The record behind these values is patent US10154667B2, “Broadleaf crop control with 6-arylpicoline carboxylic acids, 2-arylpyrimidine carboxylic acids, or salts or esters thereof” (Dow AgroSciences LLC, priority 2013, dated 2018).
